Among the data in ChEMBL document CHEMBL1145498, “A systematic interaction map of validated kinase inhibitors with Ser/Thr kinases” (Proc Natl Acad Sci U S A, 2007) are ΔTm values, retold here.

Experiment [1] has as its target Calcium/calmodulin-dependent protein kinase type II subunit beta (Homo sapiens) (UniProt Q13554).
The target in experiment [2] is Serine/threonine-protein kinase Nek6 (Homo sapiens) (UniProt Q9HC98).
Experiment [3] deals with Cyclin-dependent kinase 2 (Homo sapiens, UniProt P24941).
Experiment [4] addresses Serine/threonine-protein kinase RIO2 (Homo sapiens) (UniProt Q9BVS4).
In experiment [5] the target is T1, Myotonin-protein kinase (Homo sapiens) (UniProt Q09013).
T1 sequence (whole entry): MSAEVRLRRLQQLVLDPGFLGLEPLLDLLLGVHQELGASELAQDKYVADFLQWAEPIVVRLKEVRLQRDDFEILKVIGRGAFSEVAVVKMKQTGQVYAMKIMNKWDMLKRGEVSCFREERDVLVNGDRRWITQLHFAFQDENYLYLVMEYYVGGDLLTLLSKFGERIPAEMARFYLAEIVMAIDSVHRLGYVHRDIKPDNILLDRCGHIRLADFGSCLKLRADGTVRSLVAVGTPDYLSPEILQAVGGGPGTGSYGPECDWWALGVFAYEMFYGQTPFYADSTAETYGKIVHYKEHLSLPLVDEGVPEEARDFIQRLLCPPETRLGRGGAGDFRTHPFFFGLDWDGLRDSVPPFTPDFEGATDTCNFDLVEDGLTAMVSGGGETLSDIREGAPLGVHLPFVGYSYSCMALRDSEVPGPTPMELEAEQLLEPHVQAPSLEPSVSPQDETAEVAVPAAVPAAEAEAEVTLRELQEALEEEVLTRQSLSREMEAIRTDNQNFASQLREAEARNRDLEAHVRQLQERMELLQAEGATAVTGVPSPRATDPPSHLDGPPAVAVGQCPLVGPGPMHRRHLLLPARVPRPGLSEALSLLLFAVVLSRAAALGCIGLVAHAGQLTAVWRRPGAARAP

Experiment [6] has as its target Calcium/calmodulin-dependent protein kinase type II subunit alpha (Homo sapiens) (UniProt Q9UQM7).
Experiment [7] concerns the target Serine/threonine-protein kinase PLK1 (Homo sapiens) (UniProt P53350).
Experiment [8] addresses cAMP-dependent protein kinase catalytic subunit alpha (Homo sapiens) (UniProt P17612).
Experiment [9] concerns the target Serine/threonine-protein kinase PAK 6 (Homo sapiens) (UniProt Q9NQU5).
Experiment [10] deals with Serine/threonine-protein kinase VRK2 (Homo sapiens) (UniProt Q86Y07).
Serine/threonine-protein kinase VRK2 (Homo sapiens), sequence (Q86Y07 whole entry): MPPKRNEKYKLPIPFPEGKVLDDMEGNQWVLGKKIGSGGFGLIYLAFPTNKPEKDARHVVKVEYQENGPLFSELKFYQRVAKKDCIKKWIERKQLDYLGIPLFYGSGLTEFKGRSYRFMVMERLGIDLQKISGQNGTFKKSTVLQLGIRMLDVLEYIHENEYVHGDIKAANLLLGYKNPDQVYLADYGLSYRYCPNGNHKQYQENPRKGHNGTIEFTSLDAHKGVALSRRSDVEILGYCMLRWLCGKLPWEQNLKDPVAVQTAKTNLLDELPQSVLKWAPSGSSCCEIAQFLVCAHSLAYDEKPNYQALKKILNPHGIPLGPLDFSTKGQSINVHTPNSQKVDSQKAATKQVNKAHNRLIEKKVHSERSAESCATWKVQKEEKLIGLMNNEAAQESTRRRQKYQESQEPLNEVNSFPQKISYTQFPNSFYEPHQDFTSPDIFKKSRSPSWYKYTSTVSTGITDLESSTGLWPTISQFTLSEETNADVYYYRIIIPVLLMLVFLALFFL
The target of experiment [11] is Dual specificity protein kinase CLK2 (Homo sapiens) (UniProt P49760).
Dual specificity protein kinase CLK2 (Homo sapiens), sequence (P49760 whole entry, looked up): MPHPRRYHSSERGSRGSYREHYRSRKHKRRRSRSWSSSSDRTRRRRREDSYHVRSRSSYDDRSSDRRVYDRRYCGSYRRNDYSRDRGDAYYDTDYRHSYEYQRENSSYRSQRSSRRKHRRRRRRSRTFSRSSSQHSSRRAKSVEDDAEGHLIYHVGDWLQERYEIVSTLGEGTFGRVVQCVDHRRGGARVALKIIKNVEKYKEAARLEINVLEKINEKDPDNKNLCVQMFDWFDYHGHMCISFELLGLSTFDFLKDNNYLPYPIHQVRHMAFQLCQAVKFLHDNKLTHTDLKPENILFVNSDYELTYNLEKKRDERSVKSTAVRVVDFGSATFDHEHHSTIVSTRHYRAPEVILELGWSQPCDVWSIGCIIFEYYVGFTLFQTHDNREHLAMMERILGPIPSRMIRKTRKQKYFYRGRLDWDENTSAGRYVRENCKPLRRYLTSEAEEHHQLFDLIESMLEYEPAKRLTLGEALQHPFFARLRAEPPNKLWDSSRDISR
For experiment [12], the target named is Serine/threonine-protein kinase 26 (Homo sapiens) (UniProt Q9P289).
Serine/threonine-protein kinase 26 (Homo sapiens), sequence (Q9P289 2-416 limits assumed): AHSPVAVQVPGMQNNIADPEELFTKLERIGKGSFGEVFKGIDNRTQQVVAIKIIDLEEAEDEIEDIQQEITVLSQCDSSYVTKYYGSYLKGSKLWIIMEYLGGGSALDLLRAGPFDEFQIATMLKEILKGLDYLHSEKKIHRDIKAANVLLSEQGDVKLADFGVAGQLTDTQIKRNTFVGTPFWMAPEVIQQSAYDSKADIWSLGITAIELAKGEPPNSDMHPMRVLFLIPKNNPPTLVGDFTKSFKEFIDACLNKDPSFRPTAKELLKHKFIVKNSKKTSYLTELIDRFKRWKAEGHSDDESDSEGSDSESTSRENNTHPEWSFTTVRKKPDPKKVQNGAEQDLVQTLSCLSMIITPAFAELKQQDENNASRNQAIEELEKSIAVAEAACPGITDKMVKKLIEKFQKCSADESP
Experiment [13] addresses Serine/threonine-protein kinase 10 (Homo sapiens) (UniProt O94804).
Experiment [14] has as its target Serine/threonine-protein kinase pim-1 (Homo sapiens) (UniProt P11309).
For experiment [15], the target named is Serine/threonine-protein kinase OSR1 (Homo sapiens) (UniProt O95747).
Serine/threonine-protein kinase OSR1 (Homo sapiens), sequence (O95747 2-527 limits assumed): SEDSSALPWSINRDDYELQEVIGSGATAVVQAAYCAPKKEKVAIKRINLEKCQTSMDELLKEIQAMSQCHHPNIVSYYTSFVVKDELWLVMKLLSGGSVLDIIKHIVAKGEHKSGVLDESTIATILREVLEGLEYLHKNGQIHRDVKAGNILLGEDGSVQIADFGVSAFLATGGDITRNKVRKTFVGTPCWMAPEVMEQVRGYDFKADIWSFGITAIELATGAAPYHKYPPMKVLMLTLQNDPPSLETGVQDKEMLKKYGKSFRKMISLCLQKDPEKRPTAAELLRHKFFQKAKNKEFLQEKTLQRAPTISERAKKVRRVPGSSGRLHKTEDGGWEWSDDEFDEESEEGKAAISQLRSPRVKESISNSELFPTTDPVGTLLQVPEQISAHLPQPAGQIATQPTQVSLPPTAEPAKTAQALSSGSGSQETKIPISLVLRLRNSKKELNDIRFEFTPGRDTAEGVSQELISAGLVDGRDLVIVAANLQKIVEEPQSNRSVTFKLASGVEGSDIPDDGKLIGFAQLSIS
Experiment [16] addresses Serine/threonine-protein kinase Chk2 (Homo sapiens, UniProt O96017).
For experiment [17], the target named is T2, Mitogen-activated protein kinase kinase kinase 5 (Homo sapiens) (UniProt Q99683).
T2 sequence (whole entry): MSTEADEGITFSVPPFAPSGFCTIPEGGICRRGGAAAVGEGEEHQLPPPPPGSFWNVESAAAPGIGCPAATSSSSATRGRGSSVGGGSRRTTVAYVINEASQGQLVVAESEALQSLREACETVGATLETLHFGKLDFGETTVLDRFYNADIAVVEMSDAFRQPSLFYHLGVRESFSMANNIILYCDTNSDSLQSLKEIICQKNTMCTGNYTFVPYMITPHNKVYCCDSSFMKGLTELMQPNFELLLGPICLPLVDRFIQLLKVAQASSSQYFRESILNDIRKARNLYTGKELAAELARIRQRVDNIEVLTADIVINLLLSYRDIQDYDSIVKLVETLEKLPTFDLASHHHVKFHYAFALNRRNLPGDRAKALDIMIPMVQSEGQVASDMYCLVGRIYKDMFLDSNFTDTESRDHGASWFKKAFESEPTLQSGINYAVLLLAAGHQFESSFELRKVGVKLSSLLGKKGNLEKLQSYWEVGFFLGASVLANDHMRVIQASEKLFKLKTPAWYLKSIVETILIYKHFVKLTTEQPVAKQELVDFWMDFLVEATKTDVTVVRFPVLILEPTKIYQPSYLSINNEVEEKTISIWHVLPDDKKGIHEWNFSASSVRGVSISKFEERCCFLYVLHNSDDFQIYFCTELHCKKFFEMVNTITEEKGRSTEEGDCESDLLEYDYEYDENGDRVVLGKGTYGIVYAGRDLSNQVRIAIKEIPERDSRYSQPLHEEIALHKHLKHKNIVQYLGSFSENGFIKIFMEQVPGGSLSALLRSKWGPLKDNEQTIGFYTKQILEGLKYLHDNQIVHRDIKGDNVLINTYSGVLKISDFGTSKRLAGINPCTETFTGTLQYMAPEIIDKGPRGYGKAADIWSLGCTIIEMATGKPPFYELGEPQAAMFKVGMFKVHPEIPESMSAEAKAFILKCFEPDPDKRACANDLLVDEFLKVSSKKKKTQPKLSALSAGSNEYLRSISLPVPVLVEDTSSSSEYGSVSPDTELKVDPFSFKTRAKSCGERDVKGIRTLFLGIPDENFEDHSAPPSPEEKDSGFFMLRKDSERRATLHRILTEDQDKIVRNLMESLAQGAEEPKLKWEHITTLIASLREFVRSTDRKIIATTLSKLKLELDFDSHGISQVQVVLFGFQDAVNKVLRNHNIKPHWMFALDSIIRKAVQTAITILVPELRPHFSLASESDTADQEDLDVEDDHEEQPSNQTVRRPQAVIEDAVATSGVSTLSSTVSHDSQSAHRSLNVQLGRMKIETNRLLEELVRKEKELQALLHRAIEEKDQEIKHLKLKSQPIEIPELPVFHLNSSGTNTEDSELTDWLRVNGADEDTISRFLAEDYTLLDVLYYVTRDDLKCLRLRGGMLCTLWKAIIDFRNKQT

Experiment [18] has as its target Death-associated protein kinase 3 (Homo sapiens) (UniProt O43293).

Serine/threonine-protein kinase Chk2, sequence (O96017 whole entry): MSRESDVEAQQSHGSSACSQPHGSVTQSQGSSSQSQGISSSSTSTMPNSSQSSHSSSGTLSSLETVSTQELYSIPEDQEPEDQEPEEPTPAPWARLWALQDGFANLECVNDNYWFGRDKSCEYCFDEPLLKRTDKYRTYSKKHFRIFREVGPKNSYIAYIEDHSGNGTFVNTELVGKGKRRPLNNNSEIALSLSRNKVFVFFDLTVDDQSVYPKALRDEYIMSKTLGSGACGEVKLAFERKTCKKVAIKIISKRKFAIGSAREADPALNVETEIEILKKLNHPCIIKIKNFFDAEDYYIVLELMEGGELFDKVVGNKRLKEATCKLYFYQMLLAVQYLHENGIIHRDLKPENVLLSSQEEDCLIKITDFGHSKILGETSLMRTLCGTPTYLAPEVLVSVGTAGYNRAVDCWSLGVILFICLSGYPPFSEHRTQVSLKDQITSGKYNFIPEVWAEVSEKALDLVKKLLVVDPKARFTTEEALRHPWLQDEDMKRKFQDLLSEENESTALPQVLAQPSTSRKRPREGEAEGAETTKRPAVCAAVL
Serine/threonine-protein kinase RIO2 (Homo sapiens), sequence (Q9BVS4 whole entry, looked up): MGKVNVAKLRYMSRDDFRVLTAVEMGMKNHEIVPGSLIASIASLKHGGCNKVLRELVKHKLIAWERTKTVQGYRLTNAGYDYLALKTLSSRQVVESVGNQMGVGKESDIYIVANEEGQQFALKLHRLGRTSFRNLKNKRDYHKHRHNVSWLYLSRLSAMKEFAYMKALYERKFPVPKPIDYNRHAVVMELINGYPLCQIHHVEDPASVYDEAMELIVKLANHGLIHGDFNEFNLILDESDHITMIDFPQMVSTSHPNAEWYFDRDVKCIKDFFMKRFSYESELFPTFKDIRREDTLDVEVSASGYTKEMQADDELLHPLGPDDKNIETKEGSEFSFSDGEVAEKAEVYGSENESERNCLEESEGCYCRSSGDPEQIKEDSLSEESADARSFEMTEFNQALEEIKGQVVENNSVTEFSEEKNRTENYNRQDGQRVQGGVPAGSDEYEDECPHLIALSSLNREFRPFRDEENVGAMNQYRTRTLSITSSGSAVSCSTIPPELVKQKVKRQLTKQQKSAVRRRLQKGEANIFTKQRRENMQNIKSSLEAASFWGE
Calcium/calmodulin-dependent protein kinase type II subunit alpha (Homo sapiens), sequence (Q9UQM7 whole entry): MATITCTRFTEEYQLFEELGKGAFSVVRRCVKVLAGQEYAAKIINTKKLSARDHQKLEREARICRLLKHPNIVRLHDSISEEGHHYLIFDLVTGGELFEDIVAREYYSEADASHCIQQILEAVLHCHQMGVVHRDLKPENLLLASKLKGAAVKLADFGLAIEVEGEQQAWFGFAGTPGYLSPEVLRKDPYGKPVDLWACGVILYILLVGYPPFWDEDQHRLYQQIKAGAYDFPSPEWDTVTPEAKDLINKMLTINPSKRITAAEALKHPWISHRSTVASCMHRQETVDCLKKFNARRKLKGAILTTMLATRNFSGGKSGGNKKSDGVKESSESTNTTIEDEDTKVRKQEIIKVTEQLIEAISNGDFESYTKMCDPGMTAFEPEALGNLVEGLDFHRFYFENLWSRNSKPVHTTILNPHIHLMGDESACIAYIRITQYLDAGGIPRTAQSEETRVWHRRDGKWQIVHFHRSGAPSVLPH
Serine/threonine-protein kinase Nek6 (Homo sapiens), sequence (Q9HC98 whole entry): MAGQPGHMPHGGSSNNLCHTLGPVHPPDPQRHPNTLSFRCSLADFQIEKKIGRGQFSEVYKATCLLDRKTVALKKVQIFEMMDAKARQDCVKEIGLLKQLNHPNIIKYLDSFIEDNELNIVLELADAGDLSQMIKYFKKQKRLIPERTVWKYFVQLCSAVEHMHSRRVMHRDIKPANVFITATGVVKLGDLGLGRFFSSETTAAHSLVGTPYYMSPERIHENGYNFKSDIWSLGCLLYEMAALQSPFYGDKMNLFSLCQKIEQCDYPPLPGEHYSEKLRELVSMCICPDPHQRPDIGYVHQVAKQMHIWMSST
Serine/threonine-protein kinase PAK 6 (Homo sapiens), sequence (Q9NQU5 whole entry, looked up): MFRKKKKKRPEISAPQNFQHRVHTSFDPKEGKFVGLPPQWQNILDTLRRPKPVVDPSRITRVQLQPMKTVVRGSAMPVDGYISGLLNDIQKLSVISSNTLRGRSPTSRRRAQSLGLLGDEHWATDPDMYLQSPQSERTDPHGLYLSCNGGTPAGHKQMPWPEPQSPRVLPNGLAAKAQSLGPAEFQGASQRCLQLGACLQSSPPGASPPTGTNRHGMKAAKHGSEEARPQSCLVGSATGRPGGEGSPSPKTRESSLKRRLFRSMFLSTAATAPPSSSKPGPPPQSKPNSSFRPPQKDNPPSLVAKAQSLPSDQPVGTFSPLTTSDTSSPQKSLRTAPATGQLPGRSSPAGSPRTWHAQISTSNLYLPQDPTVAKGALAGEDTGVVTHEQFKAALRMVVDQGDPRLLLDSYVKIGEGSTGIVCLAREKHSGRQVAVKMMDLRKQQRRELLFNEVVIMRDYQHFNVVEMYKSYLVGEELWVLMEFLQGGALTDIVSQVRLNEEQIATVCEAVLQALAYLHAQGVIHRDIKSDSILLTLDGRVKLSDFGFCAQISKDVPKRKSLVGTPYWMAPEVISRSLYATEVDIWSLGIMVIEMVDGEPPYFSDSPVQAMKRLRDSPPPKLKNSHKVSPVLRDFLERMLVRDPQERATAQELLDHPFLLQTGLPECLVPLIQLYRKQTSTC
Death-associated protein kinase 3 (Homo sapiens), sequence (O43293 whole entry, looked up): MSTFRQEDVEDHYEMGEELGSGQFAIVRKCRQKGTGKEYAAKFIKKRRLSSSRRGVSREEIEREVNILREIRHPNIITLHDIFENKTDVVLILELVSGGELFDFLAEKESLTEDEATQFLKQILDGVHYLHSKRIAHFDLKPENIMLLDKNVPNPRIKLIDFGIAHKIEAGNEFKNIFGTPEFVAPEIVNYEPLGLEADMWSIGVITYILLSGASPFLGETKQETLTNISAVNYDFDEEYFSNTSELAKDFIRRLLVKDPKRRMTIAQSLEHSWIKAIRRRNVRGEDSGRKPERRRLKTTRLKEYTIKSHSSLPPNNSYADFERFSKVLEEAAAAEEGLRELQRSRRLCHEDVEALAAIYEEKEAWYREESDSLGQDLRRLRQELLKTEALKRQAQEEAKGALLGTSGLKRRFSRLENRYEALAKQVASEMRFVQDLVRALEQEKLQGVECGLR

Broadly, the ΔTm is the shift of the melting midpoint relative to a reference. On to `Cn1cc(C2=C(c3cn(CCCN)c4ccccc34)C(=O)NC2=O)c2ccccc21`, for which the ΔTm in experiment [1] was 1.7 °C; in experiment [2], -0.4 °C; in experiment [3] it was 3 °C; in experiment [4], 0.5 °C; in experiment [5], 6.9 °C; in [6], 2.6 °C. Besides, the ΔTm in experiment [7] was 0.2 °C; in experiment [8] it was 2.6 °C; in experiment [9], 4.5 °C; in experiment [10] it was 0.6 °C; in experiment [11], 5.6 °C; in experiment [12] it was -0.2 °C. Moreover, the thermal shift (ΔTm) is 6.7 °C in experiment [13]; 8.3 °C in experiment [14]; -0.1 °C in experiment [15]; 5.9 °C in [16]; 0.3 °C in [17]; 2.5 °C in experiment [18].
On to `O=c1c(-c2ccc(F)cc2)c(-c2ccncc2)[nH]n1-c1ccc(Cl)cc1`, for which the ΔTm in experiment [1] is 0 °C; in experiment [2], 0.8 °C; in experiment [3] it was 0.2 °C; in experiment [4], -0.2 °C; in experiment [5] it was 0.5 °C; in [6], 0.5 °C. The ΔTm is 0.3 °C in [7]; 1.5 °C in experiment [8]; -0.4 °C in experiment [9]; 0.7 °C in [10]; 0.8 °C in [11]; 0.6 °C in experiment [12]. For the same molecule, the ΔTm in experiment [13] was 4.3 °C; in experiment [14], -0.1 °C; in [15], 0.2 °C; in [16] it was 0.3 °C; in [17], 0.6 °C; in experiment [18] it was 0.6 °C.
In the case of `COC(=O)[C@]1(O)C[C@@H]2O[C@@]1(C)n1c3ccccc3c3c4c(c5c6ccccc6n2c5c31)C(=O)NC4` (single isomer, unassigned), the ΔTm in [1] worked out at 2.7 °C; in experiment [2], 0 °C; in [4], 1.4 °C; in experiment [5], 3.9 °C; in [6], 3.2 °C; in [7], 2.6 °C. Besides, the ΔTm in experiment [8] was 7.1 °C; in experiment [9] it was 9.7 °C; in experiment [10] it was -0.2 °C; in experiment [11], 4.8 °C; in experiment [12] it was 1.6 °C; in experiment [13], 10.9 °C. The ΔTm in experiment [14] was found to be 3.7 °C; in experiment [15], 1.8 °C; in experiment [16] it was 6 °C; in experiment [17], 12.7 °C; in [18] it was 4.6 °C.
For the molecule `Cc1ccc(NC(=O)c2ccc(CN3CCN(C)CC3)cc2)cc1Nc1nccc(-c2cccnc2)n1`, the ΔTm in [1] was 0.1 °C; in experiment [2], 0.4 °C; in [4] it was 1.2 °C; in experiment [5] it was 0.6 °C; in experiment [6] it was 0.2 °C; in experiment [7] it was 1.6 °C. For the same molecule, the ΔTm in experiment [8] was 0.8 °C; in experiment [9] it was 4.1 °C; in [10], 0.5 °C; in [12], -0.3 °C; in experiment [13], 0.8 °C; in [14] it was -0.1 °C. Also, the ΔTm in [15] is 0.7 °C; in [16], -1.1 °C; in experiment [17], 0 °C; in experiment [18], 2.8 °C.
With `OC[C@H]1O[C@@H](n2cnc3cc(Cl)c(Cl)cc32)[C@H](O)[C@@H]1O`, the ΔTm in experiment [1] was -0.1 °C; in experiment [4] it was 0.7 °C; in experiment [5], 0.1 °C; in [6], 0.8 °C; in experiment [7] it was -0.5 °C; in experiment [8], 0.4 °C. Further, the ΔTm was -0.4 °C in [9]; 0 °C in experiment [10]; 1.6 °C in experiment [11]; -0.3 °C in [12]; -0.7 °C in experiment [13]; 3.2 °C in [14]. Also, the ΔTm was 0.4 °C in experiment [15], 0.2 °C in experiment [16], -0.4 °C in experiment [17] and 1.6 °C in experiment [18].
Regarding `COc1cc2ncnc(Nc3cccc(O)c3)c2cc1OC`, the ΔTm in experiment [1] is 0.2 °C; in [2], -0.1 °C; in experiment [4] it was 3.4 °C; in experiment [5], 0.9 °C; in [6] it was 0 °C; in experiment [7] it was 1 °C. The ΔTm in [8] was 0.1 °C; in experiment [10], 0.9 °C; in [11], 1.3 °C; in [12], 0.1 °C; in experiment [13], 4.2 °C; in experiment [14], 0 °C. The ΔTm was 0.2 °C in experiment [15], 1.8 °C in [16], 1 °C in [17] and 1.7 °C in [18].
Consider `C[C@@H](N)[C@H]1CC[C@H](C(=O)Nc2ccncc2)CC1`, for which the ΔTm is 0 °C in experiment [2]; 0.5 °C in experiment [3]; 0.3 °C in experiment [4]; 0.3 °C in experiment [5]; -0.3 °C in experiment [6]; -0.2 °C in [7]. Besides, the ΔTm in experiment [8] was 0.4 °C; in [9], -0.2 °C; in experiment [10], 0.5 °C; in [11], 0.2 °C; in experiment [12] it was 0.3 °C; in experiment [13], 1.2 °C. Further, the ΔTm in experiment [14] was 0 °C; in experiment [15], -0.4 °C; in [16], -0.7 °C; in [17], 1.1 °C; in experiment [18], 1 °C.
With `O=C1c2ccccc2-c2n[nH]c3cccc1c23`, the ΔTm in experiment [2] worked out at 0.9 °C; in [3] it was 2.6 °C; in experiment [4], 2.2 °C; in [5], 0.3 °C; in experiment [6], 0.8 °C; in [7], 1.6 °C. The ΔTm in experiment [8] was found to be 2.3 °C; in experiment [9], 1.8 °C; in experiment [10] it was 2.6 °C; in experiment [11], 3 °C; in experiment [12], 3.3 °C; in [13], 2.8 °C. Besides, the ΔTm in [14] is 3.6 °C; in [15], 3.2 °C; in experiment [16], 6 °C; in [17] it was 8.8 °C; in experiment [18] it was 3.4 °C.
